These results are taken from patent US20240218022A1, “ANTI-VISTA MACROCYCLIC PEPTIDES AND COMPOSITIONS” (BRISTOL-MYERS SQUIBB COMPANY, priority 2022, published 2024).

This test concerns the target T1, mouse VISTA (mVISTA) (Mus musculus, UniProt Q9D659).
T1 construct: expressed in transfected cells; host or cells: Human embryonic kidney 293T cells
T1 sequence (Q9D659 33-308): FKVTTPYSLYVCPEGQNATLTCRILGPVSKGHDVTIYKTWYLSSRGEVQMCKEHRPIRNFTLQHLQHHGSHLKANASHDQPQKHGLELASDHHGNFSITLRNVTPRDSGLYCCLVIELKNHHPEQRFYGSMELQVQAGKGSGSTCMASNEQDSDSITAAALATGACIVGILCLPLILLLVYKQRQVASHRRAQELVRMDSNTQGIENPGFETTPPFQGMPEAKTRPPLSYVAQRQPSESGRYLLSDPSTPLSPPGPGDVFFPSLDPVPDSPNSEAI
In words: Cell-Based Binding High-Content Assay For mVISTA (HC CBA mVISTA). The note with it: cell-based binding high-content assay, mVISTA; the 15th table; read-out: HC CBA mVISTA IC50. In a few lines: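 This high-content binding assay uses HEK293T cells expressing murine VISTA, measuring displacement of 2 nM biotinylated peptide by fluorescent streptavidin imaging. IC50 values come from four-parameter logistic fitting.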

Positions of bridges follow the written chain, without caps; N, C: chain ends. Non-standard residues stand in square brackets, D forms with d. Residues, ends and D or L forms follow the SMILES beside them. 2Nal = N[C@@H](Cc1ccc2ccccc2c1)C(=O)O; Cit = NC(=O)NCCC[C@H](N)C(=O)O; Ahp(2) = CCCCC[C@H](N)C(=O)O; NMeNle = CCCC[C@H](NC)C(=O)O; NHexGly = CCCCCCNCC(=O)O; Nle = CCCC[C@H](N)C(=O)O; Orn = NCCC[C@H](N)C(=O)O

On to `CCCCCCN1CC(=O)N[C@@H](Cc2ccc(O)cc2)C(=O)N[C@@H](CCCC)C(=O)N[C@@H](CC(=O)O)C(=O)N[C@@H](CCCNC(=N)N)C(=O)N(C)[C@@H](CCCC)C(=O)N[C@@H](CCCCC)C(=O)N2CCC[C@H]2C(=O)N[C@@H](C(C)C)C(=O)N[C@@H](CC(=O)O)C(=O)N[C@H](C(=O)N[C@@H](CC(=O)O)C(N)=O)CSCC(=O)N[C@@H](Cc2ccc3ccccc3c2)C(=O)N[C@@H](Cc2c[nH]c3ccccc23)C(=O)N[C@@H](CC(=O)O)C1=O` [compound 1243] ({CH2CO}-[2Nal]WD[NHexGly]Y[Nle]DR[NMeNle][Ahp(2)]PVDCD-NH2; thioether N-14), for which the IC50 (as a rule, the concentration that inhibits the measured activity by half) turned out to be 20.1 nM. On to `CCCCCCN1CC(=O)N[C@@H](Cc2ccc(O)cc2)C(=O)N[C@@H](CCCC)C(=O)N[C@@H](CC(=O)O)C(=O)N[C@@H](CCCN)C(=O)N(C)[C@@H](CCCC)C(=O)N[C@@H](CCCCC)C(=O)N2CCC[C@H]2C(=O)N[C@@H](C(C)C)C(=O)N[C@@H](CC(=O)O)C(=O)N[C@H](C(=O)N[C@@H](CC(=O)O)C(N)=O)CSCC(=O)N[C@@H](Cc2ccc3ccccc3c2)C(=O)N[C@@H](Cc2c[nH]c3ccccc23)C(=O)N[C@@H](CC(=O)O)C1=O` [compound 1244] ({CH2CO}-[2Nal]WD[NHexGly]Y[Nle]D[Orn][NMeNle][Ahp(2)]PVDCD-NH2; thioether N-14), for which the IC50 was found to be 13.5 nM. With `CCCCCCN1CC(=O)N[C@@H](Cc2ccc(O)cc2)C(=O)N[C@@H](CCCC)C(=O)N[C@@H](CC(N)=O)C(=O)N[C@@H](CCCNC(=N)N)C(=O)N(C)[C@@H](CCCC)C(=O)N[C@@H](CCCCC)C(=O)N2CCC[C@H]2C(=O)N[C@@H](C(C)C)C(=O)N[C@@H](CC(=O)O)C(=O)N[C@H](C(=O)NCC(=O)O)CSCC(=O)N[C@@H](Cc2ccc3ccccc3c2)C(=O)N[C@@H](Cc2c[nH]c3ccccc23)C(=O)N[C@@H](CC(=O)O)C1=O` [compound 1245] ({CH2CO}-[2Nal]WD[NHexGly]Y[Nle]NR[NMeNle][Ahp(2)]PVDCG-OH; thioether N-14), the IC50 came to 6.2 nM.

On to `CCCCCCN1CC(=O)N[C@@H](Cc2ccc(O)cc2)C(=O)N[C@@H](CCCC)C(=O)N[C@@H](CC(N)=O)C(=O)N[C@@H](CCCNC(=N)N)C(=O)N(C)[C@@H](CCCC)C(=O)N[C@@H](CCCCC)C(=O)N2CCC[C@H]2C(=O)N[C@@H](C(C)C)C(=O)N[C@@H](CCCNC(=N)N)C(=O)N[C@H](C(=O)NCC(=O)O)CSCC(=O)N[C@@H](Cc2ccc3ccccc3c2)C(=O)N[C@@H](Cc2c[nH]c3ccccc23)C(=O)N[C@@H](CC(=O)O)C1=O` [compound 1246] ({CH2CO}-[2Nal]WD[NHexGly]Y[Nle]NR[NMeNle][Ahp(2)]PVRCG-OH; thioether N-14), for which the IC50 came to 25.1 nM. For `CCCCCCN1CC(=O)N[C@@H](Cc2ccc(O)cc2)C(=O)N[C@@H](CCCC)C(=O)N[C@@H](CC(N)=O)C(=O)N[C@@H](CCCNC(=N)N)C(=O)N(C)[C@@H](CCCC)C(=O)N[C@@H](CCCCC)C(=O)N2CCC[C@H]2C(=O)N[C@@H](C(C)C)C(=O)N[C@@H](CO)C(=O)N[C@H](C(=O)NCC(=O)O)CSCC(=O)N[C@@H](Cc2ccc3ccccc3c2)C(=O)N[C@@H](Cc2c[nH]c3ccccc23)C(=O)N[C@@H](CC(=O)O)C1=O` [compound 1247] ({CH2CO}-[2Nal]WD[NHexGly]Y[Nle]NR[NMeNle][Ahp(2)]PVSCG-OH; thioether N-14), the IC50 was found to be 35.2 nM.

For the compound `CCCCCCN1CC(=O)N[C@@H](Cc2ccc(O)cc2)C(=O)N[C@@H](CCCC)C(=O)N[C@@H](CC(N)=O)C(=O)N[C@@H](CCCNC(=N)N)C(=O)N(C)[C@@H](CCCC)C(=O)N[C@@H](CCCCC)C(=O)N2CCC[C@H]2C(=O)N[C@@H](C(C)C)C(=O)N[C@@H](C(C)C)C(=O)N[C@H](C(=O)NCC(=O)O)CSCC(=O)N[C@@H](Cc2ccc3ccccc3c2)C(=O)N[C@@H](Cc2c[nH]c3ccccc23)C(=O)N[C@@H](CC(=O)O)C1=O` [compound 1248] ({CH2CO}-[2Nal]WD[NHexGly]Y[Nle]NR[NMeNle][Ahp(2)]PVVCG-OH; thioether N-14), the IC50 worked out at 38.4 nM.

Regarding `CCCCCCN1CC(=O)N[C@@H](Cc2ccc(O)cc2)C(=O)N[C@@H](CCCC)C(=O)N[C@@H](CC(N)=O)C(=O)N[C@@H](CCCNC(=N)N)C(=O)N(C)[C@@H](CCCC)C(=O)N[C@@H](CCCCC)C(=O)N2CCC[C@H]2C(=O)N[C@@H](C(C)C)C(=O)N[C@@H](CC(N)=O)C(=O)N[C@H](C(=O)NCC(=O)O)CSCC(=O)N[C@@H](Cc2ccc3ccccc3c2)C(=O)N[C@@H](Cc2c[nH]c3ccccc23)C(=O)N[C@@H](CC(=O)O)C1=O` [compound 1249] ({CH2CO}-[2Nal]WD[NHexGly]Y[Nle]NR[NMeNle][Ahp(2)]PVNCG-OH; thioether N-14), the IC50 was determined as 13.9 nM.

In the case of `CCCCCCN1CC(=O)N[C@@H](Cc2ccc(O)cc2)C(=O)N[C@@H](CCCCC)C(=O)N[C@@H](CC(N)=O)C(=O)N[C@@H](CCCNC(=N)N)C(=O)N(C)[C@@H](CCCC)C(=O)N[C@@H](CCCCC)C(=O)N2CCC[C@H]2C(=O)N[C@@H](C(C)C)C(=O)N[C@@H](C(C)C)C(=O)N[C@H](C(=O)NCC(=O)O)CSCC(=O)N[C@@H](Cc2ccc3ccccc3c2)C(=O)N[C@@H](Cc2c[nH]c3ccccc23)C(=O)N[C@@H](CC(=O)O)C1=O` [compound 1250] ({CH2CO}-[2Nal]WD[NHexGly]Y[Ahp(2)]NR[NMeNle][Ahp(2)]PVVCG-OH; thioether N-14), the IC50 was 22.1 nM. In the case of `CCCCCCN1CC(=O)N[C@@H](Cc2ccc(O)cc2)C(=O)N[C@@H](CCCCC)C(=O)N[C@@H](CC(N)=O)C(=O)N[C@@H](CCCNC(=N)N)C(=O)N(C)[C@@H](CCCC)C(=O)N[C@@H](CCCCC)C(=O)N2CCC[C@H]2C(=O)N[C@@H](C(C)C)C(=O)N[C@@H](CC(=O)O)C(=O)N[C@H](C(=O)NCC(=O)O)CSCC(=O)N[C@@H](Cc2ccc3ccccc3c2)C(=O)N[C@@H](Cc2c[nH]c3ccccc23)C(=O)N[C@@H](CC(=O)O)C1=O` [compound 1251] ({CH2CO}-[2Nal]WD[NHexGly]Y[Ahp(2)]NR[NMeNle][Ahp(2)]PVDCG-OH; thioether N-14), the IC50 is 12.5 nM. Consider `CCCCCCN1CC(=O)N[C@@H](Cc2ccc(O)cc2)C(=O)N[C@@H](CCCCC)C(=O)N[C@@H](CC(N)=O)C(=O)N[C@@H](CCCNC(=N)N)C(=O)N(C)[C@@H](CCCC)C(=O)N[C@@H](CCCCC)C(=O)N2CCC[C@H]2C(=O)N[C@@H](C(C)C)C(=O)N[C@@H](CO)C(=O)N[C@H](C(=O)NCC(=O)O)CSCC(=O)N[C@@H](Cc2ccc3ccccc3c2)C(=O)N[C@@H](Cc2c[nH]c3ccccc23)C(=O)N[C@@H](CC(=O)O)C1=O` [compound 1252] ({CH2CO}-[2Nal]WD[NHexGly]Y[Ahp(2)]NR[NMeNle][Ahp(2)]PVSCG-OH; thioether N-14), for which the IC50 came out at 6.4 nM.

Regarding `CCCCCCN1CC(=O)N[C@@H](Cc2ccc(O)cc2)C(=O)N[C@@H](CCCC)C(=O)N[C@@H](CC(N)=O)C(=O)N[C@@H](CCCNC(N)=O)C(=O)N(C)[C@@H](CCCC)C(=O)N[C@@H](CCCCC)C(=O)N2CCC[C@H]2C(=O)N[C@@H](C(C)C)C(=O)N[C@@H](CC(=O)O)C(=O)N[C@H](C(=O)NCC(=O)O)CSCC(=O)N[C@@H](Cc2ccc3ccccc3c2)C(=O)N[C@@H](Cc2c[nH]c3ccccc23)C(=O)N[C@@H](CC(=O)O)C1=O` [compound 1253] ({CH2CO}-[2Nal]WD[NHexGly]Y[Nle]N[Cit][NMeNle][Ahp(2)]PVDCG-OH; thioether N-14), the IC50 is 6.9 nM.
